Measured values from patent US4772459A, “Method for controlling emesis caused by chemotherapeutic agents and antiemetic agents useful therein” (priority 1986, dated 1988).
Structures can show the parent of a compound that is named as a salt.

Key:
[1] = tested on: striatal DOPAC; experiment: Dopamine Turnover: striatal DOPAC response; type: in vivo, Sprague Dawley rats (male); conditions: rat; for Response of striatal DOPAC, percent change from control: intravenous
Protocol: Male Sprague Dawley rats were injected intravenously with various doses of test compound and whole brain was removed at a predetermined time after dosing. The striatum was dissected from the brain, homogenized in a buffer/organic solvent mixture, clarified with a centrifuge, and an aliquot of the supernatant analyzed for 3,4-dihydroxyphenylacetic acid (DOPAC) by high performance liquid chromatography coupled with an electrochemical detector. The results are expressed as the percent change from control. The standard deviation of the data generally required a difference of 18% from control to be statistically significant at the 0.05 level as determined by the Student's "t" test. DOPAC is a metabolite of dopamine.

[2] = Cisplatin Emesis; type: in vivo, Beagle dogs; conditions: for ED50: Canis lupus familiaris, iv, dog, drug i.v. 30 min before and 120 min after 3 mg/kg cisplatin i.v., blocked if 2 or less emetic events in 5 h
Protocol: Mature Beagle dogs of either sex, weighing 7-16 kg, were individually caged with water available ad libitum. Each animal was offered 300 g of Purina Dog Chow the day of an experiment. Drug in varying doses or carrier was administered intravenously 30 minutes before and 120 minutes after intravenous bolus administration of 3 mg/kg cisplatin (Ben Venue Laboratories, Inc., Bedford, Ohio). […] Emesis was considered blocked if the animal suffered 2 or less emetic events. Based upon these observations, ED50 values were determined for each of the compounds tested.

[3] = Apomorphine Climbing; type: in vivo, ICR-Swiss mice (male); conditions: for ED50: ip, 0.5 h, mouse, dose yielding climbing index of 100, apomorphine HCl 1 mg/kg s.c. 30 min after drug, read-out: Apomorphine Climbing 50% ED
Protocol: Male ICR-Swiss mice (Harlan Industries, Indianapolis, Ind.), weighing 25-29 g, were placed in 8×10×16 cm wire cages. After a 1 to 1.5 hour acclimatization period, drug or carrier was administered intraperitoneally. Apomorphine hydrochloride (Lilly; 1 mg/kg) or carrier (saline, 10.0 ml/kg) was administered subcutaneously 30 minutes after test compound administration. Climbing behavior was assessed 20 minutes after apomorphine injection using the following scoring system:
(0) 4 paws on the floor of the cage
(1) 1, 2, or 3 paws grasping a side of the cage
(2) 4 paws grasping a side of the cage.
Climbing indexes were calculated using the formula: [formula] 50% ED values (i.e., the dose of drug which yields a climbing index of 100) were calculated using regression equations.

[4] = Catalepsy; type: in vivo, Sprague Dawley rats (female); conditions: 20 mg/kg i.v., rat, tested one and two hours later
Protocol: Female Sprague Dawley rats (Harlen Industries, Indianapolis, Ind.), weighing 160-225 g, were used. The animals (n=6) were injected intravenously with drug (20 mg/kg) or carrier (saline; 2 ml/kg) and were tested one and two hours later. This involved placing the front paws of the rat on a horizontal metal bar suspended 10 cm above the table top and recording the number of seconds, to a maximum of 60, that the animal remains in this position. Each animal was tested three times in succession and the average time the animal remained on the bar was calculated. Student's non-paired "t" test was employed to determine the significance of differences between the control and treated groups.

[5] = Dacarbazine Emesis; type: in vivo, beagle dogs; conditions: 1.0 mg/kg IV × 2, dog; dacarbazine 10 mg/kg i.v.; protected if 2 or less emetic events in 5 h
Protocol: Mature beagle dogs (7-16 kg) were used in these experiments. The animals were individually caged with water available ad libitum. Each dog was offered 300 g of Purina Dog Chow the day of an experiment. Drug (mg base/kg) or carrier (0.9% saline; 0.2 ml/kg) was administered intravenously 30 minutes before and 120 minutes after intravenous bolus administration of 10 mg/kg dacarbazine (10 mg DTIC/ml saline; Miles Pharmaceuticals). […] If the animal suffered 2 or less emetic events, the animal was considered protected.

[6] = Apomorphine Emesis; type: in vivo, beagle dogs; conditions: dog, apomorphine HCl 0.1 mg/kg s.c., protected if no emetic events in 1 h
Protocol: Mature beagle dogs, individually caged and weighing 10.6-14.5 kg, were used in these experiments. The animals were fed just before being dosed intravenously with drug (mg base/kg) or carrier (0.9% saline; 0.2 ml/kg). Each animal received 0.1 mg/kg apomorphine hydrochloride (1 mg/ml saline; Lilly) subcutaneously thirty minutes after administration of the test compound. […] If the animal had no emetic events, the animal was considered protected.

[7] = very high dosages, beginning prior to cisplatin and continuing through post administration; cited from earlier work

| Structure (SMILES) | Response of striatal DOPAC, percent change from control ([1]; 0.3 mg/kg) | Response of striatal DOPAC, percent change from control ([1]; 1.0 mg/kg) | Response of striatal DOPAC, percent change from control ([1]; 3.3 mg/kg) | Response of striatal DOPAC, percent change from control ([1]; 10 mg/kg) | Response of striatal DOPAC, percent change from control ([1]; 33 mg/kg) | ED50 [2] | ED50 [3] | Catalepsy ([4]; hydrochloride) | Dacarbazine-induced emesis: Number Protected/Number Dosed [5] | Apomorphine-induced emesis: Number Protected/Number Dosed ([6]; 4.0 mg/kg IV) | Apomorphine-induced emesis: Number Protected/Number Dosed ([6]; 1.0 mg/kg IV) | Apomorphine-induced emesis: Number Protected/Number Dosed ([6]; 2.0 mg/kg IV) | Catalepsy [4] | Response of striatal DOPAC, percent change from control ([1]; 0.1 mg/kg) | dopamine antagonism suggested by Table 1 (in words) ([1]; striatal DOPAC, i.v.) | cisplatin antiemetic activity (in words) ([2]; data in Table 2) | dopamine antagonist activity from Table 2 (in words) ([3]; apomorphine climbing and catalepsy data) | Apomorphine-induced emesis: Number Protected/Number Dosed ([6]; 0.125 mg/kg IV) | effect on emesis caused by cisplatin (in words) [7] |
| --- | --- | --- | --- | --- | --- | --- | --- | --- | --- | --- | --- | --- | --- | --- | --- | --- | --- | --- | --- |
| Nc1cc2c(c(C(=O)NC[C@@H]3CCCN3)c1)OCC2 [Compound 2, (L)-5-amino-N--(2-pyrrolidinylmethyl)-2,3-dihydrobenzo[b]furan-7-carboxamide hydrochloride] | 0.0% | -6.5% | -17.3% | 0.0% | -10.7% | ~1.75 mg/kg | 100 mg/kg | No | 4/4 | 0/4 | – | – | – | – | – | – | – | – | – |
| Nc1c(Cl)cc(C(=O)NC[C@@H]2CCCN2)c2c1CCO2 [Compound 3, (L)-4-amino-5-chloro-N--(2-pyrrolidinylmethyl)-2,3-dihydrobenzo[b]furan-7-carboxamide hydrochloride] | -14.4% | -10.0% | -6.2% | -2.7% | 6.4% | ~0.42 mg/kg | 75 mg/kg | No | 4/4 | 0/4 | 0/4 | 0/4 | – | – | – | – | – | – | – |
| CCN1CCCC1CNC(=O)c1cc(Cl)cc2c1OCC2 (centres unmarked) [Compound C-1, 5-chloro-N--(1-ethyl-2-pyrrolidinylmethyl)-2,3-dihydrobenzo[b]furan-7-carboxamide hydrochloride] | – | – | – | – | – | 1 mg/kg | 0.91 mg/kg | – | – | – | – | – | Yes | – | – | – | – | – | – |
| CCN1CCCC1CNC(=O)c1cc(Cl)c(N)cc1OC (centres unmarked) [Compound C-4, 4-amino-5-chloro-2-methoxy-N--(1-ethyl-2-pyrrolidinylmethyl)benzamide] | – | – | – | – | – | 1 mg/kg | 0.44 mg/kg | – | – | – | – | – | Yes | – | – | – | – | – | – |
| CCN1CCCC1CNC(=O)c1cc(Cl)c(N)c2c1OCC2 (centres unmarked) [Compound C-3, 4-amino-5-chloro-N--(1-ethyl-2-pyrrolidinylmethyl)-2,3-dihydrobenzo[b]furan-7-carboxamide fumarate] | – | – | – | – | – | 0.7 mg/kg | 1.5 mg/kg | – | – | – | – | – | Yes | – | – | – | – | – | – |
| O=C(NC[C@@H]1CCCN1)c1cc(Cl)cc2c1OCC2 [Compound 1, (L)-5-chloro-N--(2-pyrrolidinylmethyl)-2,3-dihydrobenzo[b]furan-7-carboxamide hydrochloride] | -11.6% | -0.6% | -2.5% | 91.8% | 255.4% | 0.6 mg/kg | 36.2 mg/kg | No | 4/4 | – | 0/2 | 2/2 | – | – | – | – | – | – | – |
| CCN1CCCC1CNC(=O)c1cc(N)cc2c1OCC2 (centres unmarked) [Compound C-2, 5-amino-N--(1-ethyl-2-pyrrolidinylmethyl)-2,3-dihydrobenzo[b]furan-7-carboxamide hydrochloride] | – | – | – | – | – | 2.5 mg/kg | 10.4 mg/kg | – | – | – | – | – | No | – | – | – | – | – | – |
| COc1cc(N)c(Cl)cc1C(=O)NC[C@@H]1CCCN1 [Compound 4, (L)-4-amino-5-chloro-2-methoxy-N--(2-pyrrolidinylmethyl)benzamide hydrochloride] | -1.9% | -3.3% | -3.7% | 13.7% | 41.6% | 1 mg/kg | 44.5 mg/kg | No | – | – | 0/4 | – | – | – | – | – | – | – | – |
| CCN(CC)CCNC(=O)c1cc(Cl)c(N)cc1OC [Metoclopramide, metoclopramide, reference compound] | 12.4% | 81.2% | 192.0% | 384.6% | – | 1.1 mg/kg | 1.7 mg/kg | – | 3/4 | – | 4/4 | – | – | 1.2% | exhibits strong dopamine antagonism at doses of 1.0 mg/kg and greater | effective antiemetics | strong dopamine antagonists | 2/4 | effective in alleviating emesis caused by cisplatin |
